Key:
Assay type in all cases: cell-based
HCC827 = assay: Growth inhibition of cancer cell lines, 72 hrs (CellTiter-Glo); details: Homo sapiens, lung, adenocarcinoma
Protocol: (§1) Example C: Inhibition of Cancer Cell Growth by Treatment with PARP7 Inhibitors
(§2) Table A-2 and Table A-3 (below) represents the concentration that causes 50% growth inhibition (GI50) in a panel of cancer cell lines with Compound 18B and Compound 561. Cells were plated into 384-well plates at a pre-specified density in fetal bovine serum-containing media. Cells were treated with compound or vehicle (DMSO) 24 hrs later, and a day zero plate was collected for analysis. Test compound plates were incubated continuously for 72 hrs (Table A-2) or 144 hours (Table A-3) cell growth was assessed using a luminescent cell viability assay (CellTiter-Glo, Promega). The GI50was determined by correcting for the cell count at time zero (time of treatment) and plotting data as percent growth relative to vehicle-treated cells.

NCI-H2444 = assay: Growth inhibition of cancer cell lines, 144 hours (CellTiter-Glo); details: Homo sapiens, non-small cell lung carcinoma
Protocol: as §1, §2

EBC-1 = assay: as above; details: Homo sapiens, squamous cell lung carcinoma
Protocol: as §1, §2

IA-LM = assay: as above; details: large cell lung carcinoma
Protocol: as §1, §2

NCI-H2347 = assay: as above; details: Homo sapiens, lung adenocarcinoma
Protocol: as §1, §2

HCC1954 = assay: as above; details: Homo sapiens, ductal breast carcinoma
Protocol: as §1, §2

NCI-H1437 = assay: as above; details: Homo sapiens, lung adenocarcinoma
Protocol: as §1, §2

H4 = assay: as above; details: neuroglioma
Protocol: as §1, §2

SNU-840 = assay: as above; details: malignant ovarian Brenner tumor
Protocol: as §1, §2

GCT = assay: as above; details: Homo sapiens, undifferentiated pleiomorphic sarcoma
Protocol: as §1, §2

SW900 = assay: as above; details: Homo sapiens, squamous cell lung carcinoma
Protocol: as §1, §2

CAL-27 = assay: as above; details: Homo sapiens, tongue squamous cell carcinoma
Protocol: as §1, §2

SCaBER = assay: as above; details: Homo sapiens, bladder squamous cell carcinoma
Protocol: as §1, §2

Panc 03.27 = assay: as above; details: Homo sapiens, PANC-03-27, pancreatic adenocarcinoma
Protocol: as §1, §2

MDA-MB-468 = assay: as above; details: Homo sapiens, breast adenocarcinoma
Protocol: as §1, §2

HT-1080 = assay: as above; details: Homo sapiens, fibrosarcoma
Protocol: as §1, §2

NCI-H1930 = assay: as above; details: Homo sapiens, small cell lung carcinoma
Protocol: as §1, §2

NCI-H2087 = assay: as above; details: Homo sapiens, lung adenocarcinoma
Protocol: as §1, §2

Caki-1 = assay: as above; details: Homo sapiens, clear cell renal cell carcinoma
Protocol: as §1, §2

T84 = assay: as above; details: Homo sapiens, colon adenocarcinoma
Protocol: as §1, §2

NCI-H2291 = assay: as above; details: Homo sapiens, lung adenocarcinoma
Protocol: as §1, §2

MCAS = assay: as above; details: ovarian mucinous cystadenocarcinoma
Protocol: as §1, §2

NCI-H1944 = assay: as above; details: Homo sapiens, lung adenocarcinoma
Protocol: as §1, §2

SK-LU-1 = assay: as above; details: Homo sapiens, lung adenocarcinoma
Protocol: as §1, §2

YD-10B = assay: as above; details: tongue squamous cell carcinoma
Protocol: as §1, §2

NCI-H1373 = assay: as above; details: Homo sapiens, lung adenocarcinoma
Protocol: as §1, §2

AGS = assay: as above; details: Homo sapiens, gastric adenocarcinoma
Protocol: as §1, §2

ACC-MESO-1 = assay: as above; details: mesothelioma
Protocol: as §1, §2

SK-MES-1 = assay: as above; details: Homo sapiens, squamous cell lung carcinoma
Protocol: as §1, §2

NCI-H2009 = assay: as above; details: Homo sapiens, lung adenocarcinoma
Protocol: as §1, §2

KMRC-3 = assay: as above; details: clear cell renal carcinoma
Protocol: as §1, §2

KALS-1 = assay: as above; details: Homo sapiens, glioblastoma
Protocol: as §1, §2

COLO 680N = assay: as above; details: Homo sapiens, esophageal squamous cell carcinoma
Protocol: as §1, §2

KMBC-2 = assay: as above; details: bladder carcinoma
Protocol: as §1, §2

MSTO-211H = assay: as above; details: Homo sapiens, biphasic mesothelioma
Protocol: as §1, §2

TE-11 = assay: as above; details: Homo sapiens, esophageal squamous cell carcinoma
Protocol: as §1, §2

TUHR10TKB = assay: as above; details: renal cell carcinoma
Protocol: as §1, §2

NCI-H441 = assay: as above; details: Homo sapiens, papillary adenocarcinoma of the lung
Protocol: as §1, §2

SCC-25 = assay: as above; details: Homo sapiens, tongue squamous cell carcinoma
Protocol: as §1, §2

NUGC-3 = assay: as above; details: Homo sapiens, gastric adenocarcinoma
Protocol: as §1, §2

COR-L105 = assay: as above; details: Homo sapiens, lung adenocarcinoma
Protocol: as §1, §2

NCI-H647 = assay: as above; details: Homo sapiens, lung adenosquamous carcinoma
Protocol: as §1, §2

LN-18 = assay: as above; details: Homo sapiens, glioblastoma
Protocol: as §1, §2

SK-MEL-2 = assay: as above; details: Homo sapiens, malignant melanoma
Protocol: as §1, §2

TYK-nu = assay: as above; details: high grade ovarian serious adenocarcinoma
Protocol: as §1, §2

## N#Cc1ccc(N2CCN(C(=O)c3cccc(OC[C@@H]4c5ccccc5CN4c4cn[nH]c(=O)c4C(F)(F)F)c3)CC2)nc1 (single isomer, unassigned) [Example 18 Isomer B]
HCC827
  GI50: 0.1 to 1 µM

## C[C@@H](COCCC(=O)N1CCN(c2ncc(C(F)(F)F)cn2)CC1)Nc1cn[nH]c(=O)c1C(F)(F)F [Example 561, 5-[[(2S)-1-(3-oxo-3-[4-[5-(trifluoromethyl)pyrimidin-2-yl]piperazin-1-yl]propoxy)propan-2-yl]amino]-4-(trifluoromethyl)-2,3-dihydropyridazin-3-one]
NCI-H2444
  GI50: ≥ 1 µM
EBC-1
  GI50: < 0.1 µM
IA-LM
  GI50: < 0.1 µM
NCI-H2347
  GI50: < 0.1 µM
HCC1954
  GI50: ≥ 1 µM
NCI-H1437
  GI50: ≥ 1 µM
H4
  GI50: ≥ 1 µM
SNU-840
  GI50: ≥ 1 µM
GCT
  GI50: < 0.1 µM
SW900
  GI50: 0.1 to 1 µM
CAL-27
  GI50: ≥ 1 µM
SCaBER
  GI50: ≥ 1 µM
Panc 03.27
  GI50: < 0.1 µM
MDA-MB-468
  GI50: ≥ 1 µM
HT-1080
  GI50: ≥ 1 µM
NCI-H1930
  GI50: ≥ 1 µM
NCI-H2087
  GI50: ≥ 1 µM
Caki-1
  GI50: < 0.1 µM
T84
  GI50: ≥ 1 µM
NCI-H2291
  GI50: ≥ 1 µM
MCAS
  GI50: ≥ 1 µM
NCI-H1944
  GI50: ≥ 1 µM
SK-LU-1
  GI50: ≥ 1 µM
YD-10B
  GI50: ≥ 1 µM
NCI-H1373
  GI50: < 0.1 µM
AGS
  GI50: ≥ 1 µM
ACC-MESO-1
  GI50: ≥ 1 µM
SK-MES-1
  GI50: ≥ 1 µM
NCI-H2009
  GI50: ≥ 1 µM
KMRC-3
  GI50: ≥ 1 µM
KALS-1
  GI50: ≥ 1 µM
COLO 680N
  GI50: ≥ 1 µM
KMBC-2
  GI50: ≥ 1 µM
MSTO-211H
  GI50: ≥ 1 µM
TE-11
  GI50: ≥ 1 µM
TUHR10TKB
  GI50: < 0.1 µM
NCI-H441
  GI50: ≥ 1 µM
SCC-25
  GI50: < 0.1 µM
NUGC-3
  GI50: ≥ 1 µM
COR-L105
  GI50: 0.1 to 1 µM
NCI-H647
  GI50: < 0.1 µM
LN-18
  GI50: ≥ 1 µM
SK-MEL-2
  GI50: ≥ 1 µM
TYK-nu
  GI50: < 0.1 µM
